Experimental data published in patent US8153784B2, “Imaging of enzyme activity” (The General Hospital Corporation, priority 2004, dated 2012).

Assays:
Assay type in all cases: biochemical
[1] = molecular target: T1, human myeloperoxidase (MPO) (Homo sapiens, UniProt P05164); experiment: Pseudo-first-order rate constants of MPO-mediated conversion (relaxation times over time, 0.47 T)
T1 construct: purchased BioDesign Inc
Description: Kinetics of the samples were observed by measuring T1 and T2 at 0.47 T and 40° C. of the samples over at least a 24 hour period. At different time points, 1 M of sodium azide (final concentration=0.17 M) was added to stop the enzyme mediated reaction. The resultant progress curve was fitted with an empirical mathematical model and analyzed according to the Guggenheim method to obtain the pseudo-first-order rate constants (Guggenheim E A. Philos. Mag. 1926; 2:538).
An important property of a suitable substrate for an enzyme is the kinetics of enzymatic reaction. To determine the utility of the paramagnetic complexes as suitable substrates for human myeloperoxidase (MPO), we measured the pseudo-first-order rate constant of these substrates in MPO, and compared to the same substrates' reactions in Horse Radish Peroxidase (HRP) by monitoring the changes in relaxation time over time. […] The results shown were obtained using T1 measurements. T2 measurements yielded nearly identical results. The results are presented as mean±SD. N/A=not applicable.

human neutrophil MPO = molecular target: T2, human neutrophil MPO (Homo sapiens, UniProt P05164); experiment: MPO-mediated polymerization of DOTA(Gd) substrates: T1/T2 relaxivity change; conditions: for maximum ratio of relaxivity increase between MPO-converted product and substrate: longitudinal and transverse, 1300-1400 U of enzyme activity
T2 construct: purchased BioDesign Inc
T2 sequence (P05164 279-745 limits assumed): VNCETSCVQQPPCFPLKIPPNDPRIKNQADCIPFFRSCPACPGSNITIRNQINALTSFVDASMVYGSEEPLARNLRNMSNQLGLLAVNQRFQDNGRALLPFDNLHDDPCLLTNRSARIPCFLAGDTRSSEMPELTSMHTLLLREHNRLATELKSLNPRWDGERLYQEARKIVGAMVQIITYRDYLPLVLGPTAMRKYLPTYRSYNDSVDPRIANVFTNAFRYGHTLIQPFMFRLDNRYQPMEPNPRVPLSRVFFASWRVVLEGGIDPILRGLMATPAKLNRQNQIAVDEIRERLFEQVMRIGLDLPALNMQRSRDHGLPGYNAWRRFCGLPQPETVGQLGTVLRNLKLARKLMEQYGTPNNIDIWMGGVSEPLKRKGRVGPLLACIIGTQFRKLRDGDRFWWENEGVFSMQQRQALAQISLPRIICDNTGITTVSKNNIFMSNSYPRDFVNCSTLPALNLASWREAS
T2 sequence (P05164 165-273 limits assumed): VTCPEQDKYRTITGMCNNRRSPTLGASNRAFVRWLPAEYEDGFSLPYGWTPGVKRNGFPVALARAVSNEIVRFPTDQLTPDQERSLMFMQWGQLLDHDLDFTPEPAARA
Description: Reactions with HRP and MPO were carried out at room temperature in the presence of 0.5-1 mM substrate dissolved in 0.5 ml PBS containing H2O2 (2 mM). Reaction was initiated by adding an aliquot containing the enzyme (either HRP or MPO) and vortexing. After at least a 30 min incubation period T1 was measured using inversion-recovery pulse sequence Bruker Minispec (Buker Analytics, North Bellirica Mass.) at 0.47 T (20 MHz). Size-exclusion HPLC of reaction products was performed on TSK G3000SWXL macroporous column (Supelco) eluted with 0.1 M triethylammonium acetate, pH 7.0 at 1 ml/min.
(§1) Standard 96-well plates were prepared and imaged on a 1.5 T whole body clinical General Electric Signa MRI scanner utilizing a standard 3 inch surface coil. Inversion recovery sequences were used to measure T1 relaxation and spin echo sequences were utilized to measure T2 relaxation. T2 weighted images were obtained with TR=5000 ms and TE=100 ms with a fast spin echo sequence. T1 weighted images were obtained with spin echo sequences with the following parameters: TR=100, 200, 350, or 500, TE=11. For the Matrigel™ experiments, a relatively T2 weighted image was obtained at TR=300 ms and TE=200 ms. Single-exponential models were used to obtain T1 and T2. The relaxivities were computed by normalizing relaxation rates to the concentration of gadolinium in each sample, obtained by inductive coupled plasma (ICP) analysis performed by Galbraith Laboratories.
To determine the effect of myeloperoxidase on the substrates, we performed T1 and T2 relaxivity measurements in aqueous solutions, with and without MPO and hydrogen peroxide, at 0.47 T and 1.5 T (the results are summarized in FIGS. 3A and 3B for tyramide-DOTA(Gd) and FIGS. 4A and 4B for 5-HT-DOTA(Gd)). For reference, the two substrates were also reacted with HRP (solid symbols in FIGS. 3A and 3B and FIGS. 4A and 4B).

MPO = molecular target: T3, MPO (Homo sapiens, UniProt P05164); experiment: Matrigel tissue model containing MPO, MR imaging at 1.5 T
T3 construct: purchased BioDesign Inc
T3 sequence (P05164 279-745 limits assumed): as the sequence (P05164 279-745 limits assumed) above
T3 sequence (P05164 165-273 limits assumed): as the sequence (P05164 165-273 limits assumed) above
Description: as §1
We also designed a tissue model system with Matrigel™ to confirm that the substrates can delineate tissues containing MPO. Substrate was added on top of Matrigel™ containing MPO, and imaged at 1.5 T one hour after sample preparation (to ensure substrate conversion), and at 24 hours after sample preparation. Utilizing this tissue model system, and using glucose/glucose oxidase as the hydrogen peroxide generating system (peroxide is released by neutrophils in vivo), we observed an MPO-specific change in the MR signal (see FIG. 8) that is visible on T1-weighted, T2-weighted, and inversion recovery images, at 1 hour after sample preparation. The changes continued to increase over time, and at 24 hours, there is a 30% increase in the longitudinal relaxation rate (5.3 s^−1 to 6.9 s^−1) and a 20% increase in the transverse relaxation rate (8.8 s^−1 to 10.6 s^−1). […] No such change was identified in control systems where MPO was not present (not shown) or glucose oxidase was not present (see the first cell in FIG. 8).

[2] = Matrigel/substrate interface, at 24 hours

T1 sequence (P05164 279-745 limits assumed): as the sequence (P05164 279-745 limits assumed) above
T1 sequence (P05164 165-273 limits assumed): as the sequence (P05164 165-273 limits assumed) above

## CC(C(=O)NCC(=O)NCCc1c[nH]c2ccc(O)cc12)N1CCN(CC(=O)[O-])CCN(CC(=O)[O-])CCN(CC(=O)[O-])CC1.[Gd+3] (centres unmarked) [5-HT-DOTA(Gd), Glycylmethyl DOTA(Gd) 5-Hydroxytryptamide]
[1]
  fraction of the final relaxation rate obtained within the first 5 minutes: more than 80%
[1]; from T1 measurements, mean±SD
  Pseudo first-order rate constant: 0.0063 s⁻¹
Human neutrophil MPO; 0.47 T
  maximum ratio of relaxivity increase between MPO-converted product and substrate: 1.9-2 times
Human neutrophil MPO; 1.5 T
  maximum ratio of relaxivity increase between MPO-converted product and substrate: 1.6-1.7 times
Human neutrophil MPO; 10 μL of MPO (1.6 mg/ml) vs 1 μL HRP (4 mg/ml)
  T1 shortening relative to that by HRP: 100%
Human neutrophil MPO; 250-650 U MPO
  T1 shortening relative to HRP-mediated T1 shortening: Approximately 70%
Human neutrophil MPO; 1300-2000 U
  relaxivity shortening found in the relaxation experiments: ~70%
Human neutrophil MPO; equivalent amount of MPO, clinical imaging strength
  increase in relaxivity of polymer product: 1.7 times
MPO; [2]
  increase in the longitudinal relaxation rate: 30%
  increase in the transverse relaxation rate: 20%
MPO; at 24 hours
  longitudinal relaxation rate: 6.9 s⁻¹
  transverse relaxation rate: 10.6 s⁻¹
MPO; starting value
  longitudinal relaxation rate: 5.3 s⁻¹
  transverse relaxation rate: 8.8 s⁻¹
